Experimental data from patent publication US7989464B2, “mGluR1 antagonists as therapeutic agents” (Schering Corporation, priority 2004, dated 2011).

Molecular target: T1, hmGluR1 receptor (Homo sapiens, UniProt Q13255)
T1 construct: expressed in transfected cells
Test: IC50 determination: intracellular calcium mobilization (FLIPR) upon Quisqualate stimulation in CHO cells stably expressing hmGluR1
Assay type: cell-based
Conditions: against Quisqualate 1 μM (EC80), FLIPR calcium mobilization, read-out: IC50 Class
Method in brief: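 CHO cells stably expressing hmGluR1 were kept overnight in DMEM high glucose with GPT and 1 mM pyruvate, then loaded 2 h with Calcium 3 dye.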

T1 sequence (Q13255 19-1194): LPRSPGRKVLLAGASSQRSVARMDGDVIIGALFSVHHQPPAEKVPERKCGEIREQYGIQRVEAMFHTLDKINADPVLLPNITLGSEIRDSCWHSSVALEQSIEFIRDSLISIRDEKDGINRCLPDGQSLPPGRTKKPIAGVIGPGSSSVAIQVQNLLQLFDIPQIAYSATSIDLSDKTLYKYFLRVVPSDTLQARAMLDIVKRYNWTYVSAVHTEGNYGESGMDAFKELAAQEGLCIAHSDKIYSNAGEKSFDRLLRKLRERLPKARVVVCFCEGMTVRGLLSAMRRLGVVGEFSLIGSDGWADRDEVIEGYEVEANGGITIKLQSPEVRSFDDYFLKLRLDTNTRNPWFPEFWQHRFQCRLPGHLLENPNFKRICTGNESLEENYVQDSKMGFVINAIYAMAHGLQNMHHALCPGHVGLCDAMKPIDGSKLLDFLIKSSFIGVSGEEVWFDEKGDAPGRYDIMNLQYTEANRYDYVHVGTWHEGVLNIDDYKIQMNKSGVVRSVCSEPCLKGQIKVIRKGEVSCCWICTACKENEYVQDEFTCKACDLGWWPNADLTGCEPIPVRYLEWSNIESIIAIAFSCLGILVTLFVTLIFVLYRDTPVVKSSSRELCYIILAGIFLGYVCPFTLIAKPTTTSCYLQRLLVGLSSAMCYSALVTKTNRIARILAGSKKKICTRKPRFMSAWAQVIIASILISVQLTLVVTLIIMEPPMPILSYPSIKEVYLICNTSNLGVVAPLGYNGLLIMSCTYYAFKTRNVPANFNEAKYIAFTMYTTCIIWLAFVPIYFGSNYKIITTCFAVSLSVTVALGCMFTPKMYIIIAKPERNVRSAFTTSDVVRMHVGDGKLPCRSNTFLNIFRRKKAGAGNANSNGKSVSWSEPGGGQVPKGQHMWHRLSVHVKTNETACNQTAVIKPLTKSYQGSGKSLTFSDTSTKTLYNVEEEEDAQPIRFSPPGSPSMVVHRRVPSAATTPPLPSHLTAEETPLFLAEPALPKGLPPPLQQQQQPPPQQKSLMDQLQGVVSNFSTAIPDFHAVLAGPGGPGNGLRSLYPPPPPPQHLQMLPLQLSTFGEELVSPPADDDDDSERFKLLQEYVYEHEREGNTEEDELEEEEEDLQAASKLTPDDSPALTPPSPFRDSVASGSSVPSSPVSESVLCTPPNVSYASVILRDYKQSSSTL

| Structure (SMILES) | IC50 [nM] |
| --- | --- |
| CCNc1ccnc2sc3c(=O)n(-c4ccc(F)cc4)cnc3c12 [28HY] | < 50 |
| CCNc1ccnc2sc3c(=O)n(-c4ccc(Cl)cc4)cnc3c12 [28HZ] | < 50 |
| CCN(C)c1ccnc2sc3c(=O)n(-c4ccc(OC)c(F)c4)cnc3c12 [28IA] | < 50 |
| CNc1ccnc2sc3c(=O)n(-c4ccc(F)cc4)cnc3c12 [28IB] | < 50 |
| CCN(C)c1ccnc2sc3c(=O)n(-c4ccc(Cl)cc4)cnc3c12 [28IC] | < 50 |
| CCN(C)c1ccnc2sc3c(=O)n(-c4ccc(F)cc4)cnc3c12 [28ID] | < 50 |
| CCN(C)c1ccnc2sc3c(=O)n(-c4ccc5c(c4)OCO5)cnc3c12 [28IE] | < 50 |

Continued, values first:

| IC50 [nM] | Structure (SMILES) |
| --- | --- |
| < 50 | C=Cc1ccnc2sc3c(=O)n(-c4ccc(Cl)cc4)cnc3c12 [29E] |
| < 50 | Cc1ccc(-n2cnc3c(sc4nccc(C(C)C)c43)c2=O)cc1 [29F] |
| < 50 | CCc1ccnc2sc3c(=O)n(-c4ccc(C)cc4)cnc3c12 [29G] |
| < 50 | COc1ccc(-n2cnc3c(sc4nccc(C(C)C)c43)c2=O)cc1 [29H] |
| < 50 | CCc1ccnc2sc3c(=O)n(-c4ccc(OC)cc4)cnc3c12 [29I] |
| < 50 | CC(C)c1ccnc2sc3c(=O)n(-c4ccc(Cl)cc4)cnc3c12 [29J] |
| < 50 | CCc1ccnc2sc3c(=O)n(-c4ccc(Cl)cc4)cnc3c12 [29K] |

Same assay, conditions: against Quisqualate 1 μM (EC80), FLIPR calcium mobilization, read-out: mGluR1 IC50

| IC50 [nM] | Structure (SMILES) |
| --- | --- |
| 1.22 | CCNc1ccnc2sc3c(=O)n(-c4ccc(Cl)cc4)cnc3c12 [28HZ] |
| 2.09 | CCN(C)c1ccnc2sc3c(=O)n(-c4ccc(Cl)cc4)cnc3c12 [28IC] |
| 1.47 | C#CCNc1ccnc2sc3c(=O)n(-c4ccc(C)cc4)cnc3c12 [28Z] |

Same assay, conditions: against Quisqualate 1 μM (EC80), class symbols, read-out: mGIuR 1 IC50

| Structure (SMILES) | IC50 [nM] |
| --- | --- |
| O=c1c2sc3nccc(Nc4ccccc4)c3c2ncn1C1CCCCC1 [28H] | > 1000 |
| CNc1ccnc2sc3c(=O)n(-c4ccc(OC)cc4)cnc3c12 [28I] | < 50 |
| CCN(CC)c1ccnc2sc3c(=O)n(C4CCCCC4)cnc3c12 [28J] | 150 to 1000 |
| CCCN(CCC)c1ccnc2sc3c(=O)n(C4CCCCC4)cnc3c12 [28K] | > 1000 |
| O=c1c2sc3nccc(N4CCCCC4)c3c2ncn1C1CCCCC1 [28L] | > 1000 |
| O=c1c2sc3nccc(N4CC[C@@H](O)C4)c3c2ncn1C1CCCCC1 [28M] | > 1000 |
| O=c1c2sc3nccc(N4CC[C@H](O)C4)c3c2ncn1C1CCCCC1 [28N] | > 1000 |
| O=c1c2sc3nccc(N4CCOCC4)c3c2ncn1C1CCCCC1 [28O] | > 1000 |
| CCNc1ccnc2sc3c(=O)n(C4CCCCC4)cnc3c12 [28P] | < 50 |
| CCCNc1ccnc2sc3c(=O)n(C4CCCCC4)cnc3c12 [28Q] | 50 to 150 |
| CCCCNc1ccnc2sc3c(=O)n(C4CCCCC4)cnc3c12 [28R] | 150 to 1000 |
| O=c1c2sc3nccc(NC4CC4)c3c2ncn1C1CCCCC1 [28S] | < 50 |
| O=c1c2sc3nccc(NC4CCCC4)c3c2ncn1C1CCCCC1 [28T] | > 1000 |
| O=c1c2sc3nccc(N4CCNCC4)c3c2ncn1C1CCCCC1 [28U] | > 1000 |
| O=c1c2sc3nccc(N4CCC4)c3c2ncn1C1CCCCC1 [28V] | 150 to 1000 |
| O=c1c2sc3nccc(NC4CCC4)c3c2ncn1C1CCCCC1 [28W] | 150 to 1000 |
| CNc1ccnc2sc3c(=O)n(C4CCCCC4)cnc3c12 [28X] | < 50 |
| CCN(C)c1ccnc2sc3c(=O)n(C4CCCCC4)cnc3c12 [28Y] | < 50 |
| C#CCNc1ccnc2sc3c(=O)n(-c4ccc(C)cc4)cnc3c12 [28Z] | < 50 |

More lines, now with the values ahead:

| IC50 [nM] | Structure (SMILES) |
| --- | --- |
| 150 to 1000 | Cc1ccc(-n2cnc3c(sc4nccc(NC[C@@H](C)O)c43)c2=O)cc1 [29A] |
| > 1000 | O=c1c2sc3nccc(C4CCCC4)c3c2ncn1C1CCCCC1 [29B] |
| 50 to 150 | CCc1ccnc2sc3c(=O)n(C4CCCCC4)cnc3c12 [29C] |
| > 1000 | O=c1c2sc3nccc(-n4cccn4)c3c2ncn1C1CCCCC1 [30B] |
| > 1000 | O=C1CCCN1c1ccnc2sc3c(=O)n(C4CCCCC4)cnc3c12 [30C] |
| 150 to 1000 | CN(C)c1cncc2sc3c(=O)n(C4CCCCC4)cnc3c12 [37A] |
| 150 to 1000 | CN(C)c1cncc2sc3c(=O)n(-c4ccc5scnc5c4)cnc3c12 [37B] |
| 50 to 150 | CN(C)c1cncc2sc3c(=O)n(-c4ccc5c(c4)OCCO5)cnc3c12 [37C] |
| 150 to 1000 | CN(C)c1cncc2sc3c(=O)n(-c4ccccc4)cnc3c12 [37D] |
